Earlier results in patent US20160220512A1, “MODIFIED RELEASE PHARMACEUTICAL FORMULATIONS” (RUBICON RESEARCH PRIVATE LIMITED, priority 2013, published 2016).

Tests used:
[1] = memantine and its salts
[2] = system: N-methyl d-aspartate (NMDA) receptor; conditions: uncompetitive NMDA receptor antagonist

BCS classification [1]: BCS Class I | permeability [1]: highly permeable | solubility [1]: highly soluble | affinity for the receptor [2]: moderate affinity
SMILES: CC12CC3CC(C)(C1)CC(N)(C3)C2 [Memantine, 1-amino-3,5-dimethyladamantane]
